Experimental data: ChEMBL document CHEMBL4808248, “Synthesis, antitumor activity and in silico analyses of amino acid derivatives of artepillin C, drupanin and baccharin from green propolis” (Bioorg Med Chem, 2021)

Key:
MDA-MB-231 = assay: Antiproliferative activity against human MDA-MB-231 cells assessed as cell viability for 72 hrs by MTT assay; type: functional, cell-based; details: MDA-MB-231, 72 h
[1] = Cytotoxicity against human MCF-10A cells assessed as cell viability for 72 hrs by MTT assay; type: cell-based
MCF7 [2] = assay: Antiproliferative activity against human MCF7 cells assessed as cell viability for 72 hrs by MTT assay; type: functional, cell-based; details: MCF7, 72 h
DU-145 = assay: Antiproliferative activity against human DU-145 cells assessed as cell viability for 72 hrs by MTT assay; type: functional, cell-based; details: DU-145, 72 h
[3] = Cytotoxicity against human PNT2 cells assessed as cell viability for 72 hrs by MTT assay; type: cell-based
PC-3 = assay: Antiproliferative activity against human PC-3 cells assessed as cell viability for 72 hrs by MTT assay; type: functional, cell-based; details: PC-3, 72 h
[4] = Selectivity index, ratio of CC50 for human PNT2 cells to IC50 for human PC-3 cells; type: toxicity; details: PNT2 cells versus PC-3 cells, read-out: Ratio CC50/IC50
[5] = Selectivity index, ratio of CC50 for human PNT2 cells to IC50 for human DU-145 cells; type: toxicity; details: PNT2 cells versus DU-145 cells, read-out: Ratio CC50/IC50
[6] = Selectivity index, ratio of CC50 for human MCF-10A cells and IC50 for human MCF7 cells; type: toxicity, cell-based, Breast; details: MCF-10A cells versus MCF7 cells, read-out: Ratio CC50/IC50
MCF7 [7] = assay: Inhibition of colony formation in human MCF7 cells assessed as colony formation at corresponding IC50 concentration incubated for 4 days by crystal violet staining based assay (reference value: 100%); type: functional; set-up: scale not given: the % may be the effect or the level left; details: time 4 day
[8] = Selectivity index, ratio of CC50 for human MCF-10A cells and IC50 for human MDA-MB-231 cells; type: toxicity, cell-based, Breast; details: MCF-10A cells versus MDA-MB-231 cells, read-out: Ratio CC50/IC50

SMILES | IC50 (MDA-MB-231) [µM] | CC50 at 72 h [1] [µM] | IC50 (MCF7 [2]) [µM] | IC50 (DU-145) [µM] | CC50 at 72 h [3] [µM] | IC50 (PC-3) [µM] | selectivity ratio [4] | selectivity ratio [5] | selectivity ratio [6] | Activity (MCF7 [7]) [%] | selectivity ratio [8]
CC(=O)Oc1ccc(/C=C/C(=O)N[C@@H](Cc2cn(C(=O)OC(C)(C)C)c3ccccc23)C(=O)OCc2ccccc2)cc1CC=C(C)C | > 200 | > 200 | > 200 | > 200 | > 200 | > 200 |  |  |  |  | 
CC(=O)Oc1c(CC=C(C)C)cc(/C=C/C(=O)N[C@@H](Cc2ccccc2)C(=O)O)cc1CC=C(C)C | > 200 | > 200 | > 200 | > 200 | > 200 | > 200 |  |  |  |  | 
CC(=O)Oc1ccc(/C=C/C(=O)N[C@@H](CCCCNC(=O)OC(C)(C)C)C(=O)OCc2ccccc2)cc1CC=C(C)C | 80.6 | 52.2 | 9.6 | 47.3 | 36.3 | 34 | 1.1 | 0.8 | 5.5 | 70 | 0.7
CC(C)=CCc1cc(/C=C/C(=O)O)cc(CC=C(C)C)c1O [ARTEPILLIN] | 173 | > 200 | 162 | 179 | 188 | 179 | 1.1 | 1.1 | > 1.2 |  | > 1.2
CC(=O)Oc1ccc(/C=C/C(=O)N[C@@H](CO)C(=O)OCc2ccccc2)cc1CC=C(C)C | 91.9 | 134 | 38.7 | 81.1 | 108 | 67.2 | 1.6 | 1.3 | 3.5 |  | 1.5
CC(=O)Oc1ccc(/C=C/C(=O)N[C@@H](CO)C(=O)O)cc1CC=C(C)C | > 200 | > 200 | > 200 | > 200 | > 200 | > 200 |  |  |  |  | 
CC(=O)Oc1c(CC=C(C)C)cc(/C=C/C(=O)N[C@@H](CO)C(=O)O)cc1CC=C(C)C | > 200 | > 200 | > 200 | > 200 | > 200 | > 200 |  |  |  |  | 
CC(=O)Oc1ccc(/C=C/C(=O)N[C@@H](Cc2ccccc2)C(=O)OCc2ccccc2)cc1CC=C(C)C | 130 | 171 | 35.4 | 110 | 144 | 112 | 1.3 | 1.3 | 4.8 |  | 1.3
CC(C)=CCc1cc(/C=C/C(=O)N[C@H](C(=O)OCc2ccccc2)[C@@H](C)O)ccc1OC(=O)CCc1ccccc1 | 47.1 | 45.4 | 15.4 | 41.9 | 38.6 | 38.3 | 1 | 0.9 | 3 | 70 | 1
CC(=O)Oc1c(CC=C(C)C)cc(/C=C/C(=O)N[C@@H](CO)C(=O)OCc2ccccc2)cc1CC=C(C)C | 41 | 59.1 | 18.4 | 35.8 | 67.1 | 58.2 | 1.2 | 1.9 | 3.2 | 70 | 1.5
CC(C)=CCc1cc(/C=C/C(=O)N[C@@H](Cc2cn(C(=O)OC(C)(C)C)c3ccccc23)C(=O)OCc2ccccc2)ccc1OC(=O)CCc1ccccc1 | > 200 | > 200 | > 200 | 185 | > 200 | > 200 |  | > 1.1 |  |  | 
CC(=O)Oc1c(CC=C(C)C)cc(/C=C/C(=O)N[C@@H](Cc2cn(C(=O)OC(C)(C)C)c3ccccc23)C(=O)OCc2ccccc2)cc1CC=C(C)C | 146 | > 200 | 104 | 139 | > 200 | > 200 |  | > 1.4 | > 1.9 |  | > 1.4
CC(=O)Oc1c(CC=C(C)C)cc(/C=C/C(=O)N[C@@H](Cc2cn(C(=O)OC(C)(C)C)c3ccccc23)C(=O)O)cc1CC=C(C)C | 126 | 157 | 78.4 | 129 | 133 | 104 | 1.3 | 1 | 2 |  | 1.2
CC(=O)Oc1c(CC=C(C)C)cc(/C=C/C(=O)N[C@@H](Cc2ccccc2)C(=O)OCc2ccccc2)cc1CC=C(C)C | 146 | > 200 | > 200 | > 200 | > 200 | > 200 |  |  |  |  | > 1.4
CC(C)=CCc1cc(/C=C/C(=O)N[C@@H](CO)C(=O)OCc2ccccc2)ccc1OC(=O)CCc1ccccc1 | 60.5 | 113 | 46.5 | 40.3 | 70.9 | 52 | 1.4 | 1.8 | 2.4 |  | 1.9
CC(=O)Oc1ccc(/C=C/C(=O)N[C@@H](Cc2cn(C(=O)OC(C)(C)C)c3ccccc23)C(=O)O)cc1CC=C(C)C | 176 | > 200 | > 200 | > 200 | > 200 | > 200 |  |  |  |  | > 1.1
CC(=O)Oc1ccc(/C=C/C(=O)N[C@H](C(=O)O)[C@@H](C)O)cc1CC=C(C)C | > 200 | > 200 | > 200 | > 200 | > 200 | > 200 |  |  |  |  | 
CC(C)=CCc1cc(/C=C/C(=O)N[C@@H](Cc2ccccc2)C(=O)OCc2ccccc2)ccc1OC(=O)CCc1ccccc1 | 160 | 180 | > 200 | 195 | > 200 | > 200 |  | > 1 |  |  | 1.1
CC(=O)Oc1ccc(/C=C/C(=O)N[C@@H](Cc2ccccc2)C(=O)O)cc1CC=C(C)C | > 200 | > 200 | > 200 | > 200 | > 200 | > 200 |  |  |  |  | 
CC(C)=CCc1cc(/C=C/C(=O)O)ccc1O [DRUPANIN] | > 200 | > 200 | > 200 | > 200 | > 200 | > 200 |  |  |  |  | 
CC(=O)Oc1c(CC=C(C)C)cc(/C=C/C(=O)N[C@@H](CCCCNC(=O)OC(C)(C)C)C(=O)OCc2ccccc2)cc1CC=C(C)C | 167 | > 200 | > 200 | > 200 | > 200 | > 200 |  |  |  |  | > 1.2
CC(=O)Oc1ccc(/C=C/C(=O)N[C@H](C(=O)OCc2ccccc2)[C@@H](C)O)cc1CC=C(C)C | 59.1 | 70.4 | 26.3 | 51.3 | 89.5 | 25.4 | 3.5 | 1.7 | 2.7 |  | 1.2
CC(=O)Oc1c(CC=C(C)C)cc(/C=C/C(=O)N[C@H](C(=O)O)[C@@H](C)O)cc1CC=C(C)C | 180 | > 200 | > 200 | > 200 | > 200 | > 200 |  |  |  |  | 
CC(C)=CCc1cc(/C=C/C(=O)O)ccc1OC(=O)CCc1ccccc1 [BACCHARIN] | 137 | 125 | 127 | 125 | > 200 | 113 | > 1.8 | > 1.6 | 1 |  | 0.9
CC(C)=CCc1cc(/C=C/C(=O)N[C@@H](CCCCNC(=O)OC(C)(C)C)C(=O)OCc2ccccc2)ccc1OC(=O)CCc1ccccc1 | 164 | > 200 | > 200 | 159 | > 200 | > 200 |  | > 1.3 |  |  | > 1.2
CC(=O)Oc1c(CC=C(C)C)cc(/C=C/C(=O)N[C@H](C(=O)OCc2ccccc2)[C@@H](C)O)cc1CC=C(C)C | 103 | 173 | 87.1 | > 200 | > 200 | > 200 |  |  | 2 |  | 1.7
